# Read-outs that look alike come from different tables or passages of the source.
# How the values were obtained:
# Hela cells = assay: Cloning efficiency of Hela cells in vitro (colony inhibition); format: cell-based; conditions: Homo sapiens
# Description: After treatment for 2, 8 and 24 hours, Hela cells were seeded (200 cells per plate) and the number of colonies determined 8 days later. The inhibiting dose (ID50) represents the does which produces a 50% inhibition of colonies.
# ^a cloning efficiency of Hela cells
# [1] = system: Moloney Sarcoma Virus (MSV); assay: Formation of foci by Moloney Sarcoma Virus (MSV) in vitro (antiviral action); format: cell-based; conditions: Fibroblast, 72 h, read-out: Antiviral action ID50
# Description: (§1) The test compound was evaluated on mouse embryo fibroblast (MEF) cultures infected with MSV and on similar uninfected cultures. After a treatment of three days the inhibiting doses (ID50) were evaluated on cell proliferation in uninfected cultures (cytotoxic action) and on MSV foci formation in infected cultures (antiviral action).
# ^b inhibition of MSV foci formation
# [2] = Proliferation of uninfected mouse embryo fibroblast (MEF) cultures (cytotoxic action); format: cell-based; conditions: mouse, mouse embryo fibroblasts; uninfected MEF, three days treatment; Table 2; read-out: Cytotoxic action ID50
# Description: as §1
# (§2) ^c inhibition of mouse embryo fibroblasts proliferation
# [3] = system: mouse embryo fibroblast (MEF) cultures; assay: as above; format: cell-based
# Description: as §1, §2
# [4] = system: Ascites lymphocitic P 388 Leukemia; assay: Ascites lymphocitic P 388 Leukemia in CDF1 mice, i.p. treatment days 1-9; format: in vivo, mouse (male CDF1); conditions: for Tumor evaluation, median survival time: control 12.1 days
smiles,measurement,setting,value
"COc1cccc2c1C(=O)c1c(O)c3c(c(O)c1C2=O)C[C@@](O)(C(C)=O)C[C@@H]3O[C@H]1C[C@@H](N)[C@@H](O)[C@H](C)O1 [3'-4'-epi-daunomycin, 3',4'-epi-daunomycin]",IC50,"Hela cells; 2 h, read-out: ID50 (action on Hela cells), 2 hours treatment, Table 1",270 µg/mL
same,IC50,"Hela cells; 8 h, read-out: ID50 (action on Hela cells), 8 hours treatment, Table 1",220 µg/mL
same,IC50,"Hela cells; 24 h, read-out: ID50 (action on Hela cells), 24 hours treatment, Table 1",190 µg/mL
same,IC50,[1],0.045 µg/mL
same,CC50 at 72 h,[2],0.09 µg/mL
same,cytotoxic activity in vitro compared with daunomycin,[3],"less cytotoxic acitivity in vitro, when compared with daunomycin"
same,Toxicity (survivors at fifth day),"[4]; 1.56 mg/kg i.p., days 1-9",6/6
same,"Tumor evaluation, T/C %","[4]; 1.56 mg/kg i.p., days 1-9",129%
same,"Tumor evaluation, median survival time","[4]; 1.56 mg/kg i.p., days 1-9",15.7 days
same,Toxicity (survivors at fifth day),"[4]; 3.13 mg/kg i.p., days 1-9",6/6
same,"Tumor evaluation, T/C %","[4]; 3.13 mg/kg i.p., days 1-9",142%
same,Toxicity (survivors at fifth day),"[4]; 6.25 mg/kg i.p., days 1-9",6/6
same,"Tumor evaluation, T/C %","[4]; 6.25 mg/kg i.p., days 1-9",155%
same,Toxicity (survivors at fifth day),"[4]; 12.5 mg/kg i.p., days 1-9",6/6
same,"Tumor evaluation, T/C %","[4]; 12.5 mg/kg i.p., days 1-9",173%
same,"Tumor evaluation, median survival time","[4]; 12.5 mg/kg i.p., days 1-9",21 days
same,Toxicity (survivors at fifth day),"[4]; 25 mg/kg i.p., days 1-9",6/6
same,"Tumor evaluation, T/C %","[4]; 25 mg/kg i.p., days 1-9",231%
same,"Tumor evaluation, median survival time","[4]; 25 mg/kg i.p., days 1-9",28 days
same,Cures,"[4]; 25 mg/kg i.p., days 1-9, evaluated day 20",1
same,anti-tumor activity in tumor bearing animals,[4]; Table 3,distinct anti-tumor activity

# — patent US4112076A, “Epi-daunomycin and epi-adriamycin compounds and method of use” (priority 1975, dated 1978)
